Patent publication US5574012A, “Analogs of hirudin having anti-platelet activity” (Merrell Pharmaceuticals Inc., priority 1995, dated 1996)

Experiments:
[1] = molecular target: thrombin (Bos taurus, UniProt P00735); assay: biochemical; settings: bovine; read-out: Bovine Antithrombin IC50
[2] = system: platelets; assay: Dog antiplatelet IC50; format: cell-based

SMILES	IC50 [1] [µM]	IC50 [2] [µM]
CC[C@H](C)[C@H](NC(=O)[C@@H]1CCCN1C(=O)[C@H](CCC(=O)O)NC(=O)[C@H](Cc1c[nH]c2ccccc12)NC(=O)[C@H](CC(=O)O)NC(=O)CNC(=O)[C@@H](N)CCCNC(=N)N)C(=O)N1CCC[C@H]1C(=O)N[C@@H](CCC(=O)O)C(=O)N[C@@H](CCC(=O)O)C(=O)N[C@@H](C)C(=O)N[C@@H](CC1CCCCC1)C(=O)N[C@H](CCC(=O)O)C(=O)O [Example 3]	2.8	–
CC[C@H](C)[C@H](NC(=O)[C@@H]1CCCN1C(=O)[C@H](CCC(=O)O)NC(=O)[C@H](Cc1c[nH]c2ccccc12)NC(=O)[C@H](CC(=O)O)NC(=O)CNC(=O)CCCCN)C(=O)N1CCC[C@H]1C(=O)N[C@@H](CCC(=O)O)C(=O)N[C@@H](CCC(=O)O)C(=O)N[C@@H](C)C(=O)N[C@@H](CC1CCCCC1)C(=O)N[C@H](CCC(=O)O)C(=O)O [Example 2]	–	250
